Laboratory results taken from patent US20220315534A1, “BETA ADRENERGIC AGONIST AND METHODS OF USING THE SAME” (Curasen Therapeutics, Inc., priority 2019, published 2022).
Where two headings read alike, the source gives them in different places.

Columns and labels:
[1] = molecular target: T1, β1-adrenergic receptor (B1-AR) (Homo sapiens, UniProt P08588); test: cAMP Gs dynamic HTRF assay, cells expressing β1-adrenergic receptor; format: cell-based
T1 construct: expressed in transfected cells
Procedure: (§1) cAMP homogeneous time-resolved fluorescence (HTRF): experimental methods. Compound efficacy is determined using the cAMP Gs dynamic HTRF assay (Cisbio, catalog #62AM4PEC) largely following the manufacturer's instructions, also detailed below.
(§2) Standard serial dilution curves are 10-point, 5-fold dilutions starting from a highest concentration of 10 μM. […] Assay plates are centrifuged at 500×g for 10 seconds. Compounds and IBMX are prepared at 2× final dose to compensate for addition of cells.
(§3) Cell preparation: 1× stimulation buffer, washing PBS (Dulbecco's phosphate-buffered saline, —Mg —Ca; Caisson Labs, catalog #PBL01), assay PBS (Dulbecco's phosphate-buffered saline, +Mg, +Ca; Caisson Labs, catalog #PBL02) and Versene (0.02% EDTA disodium salt solution in PBS without calcium or magnesium; Caisson Labs, catalog #EDL01) are pre-warmed to 37° C. Cells expressing beta-adrenergic receptor were washed in washing PBS to remove growth medium and then released from the surface by incubating with Versene for 5-10 minutes at 37° C. Cells are harvested using assay PBS, counted manually by hemocytometer or by an automated cell counter, pelleted by centrifugation (200×g, 5 minutes) and resuspended in 37° C. 1× stimulation buffer to a final density of […]. 5 μL of the suspended cell solution (7500 cell total) are added to all wells of the 384 well assay plate, the assay plate was covered with an Axygen® plate seal (Corning PCR-SP) and incubated in a humidified 37° C. environment supplemented with 5% CO2 for 30 minutes.
(§4) HTRF reagent addition, reading and data analysis: After 30 minutes of cell stimulation with test compound, the assay plates are centrifuged at 500×g for 10 seconds, and incubation was stopped with the addition of 5 μL cAMP-D2 acceptor, diluted 1:21 in detection and lysis buffer 2 (Cisbio 62CL2FDF) was added to all cells. Subsequently, 5 μL Anti-cAMP-Eu Donor, diluted 1:21 in detection and lysis buffer 2, was added to cells. Plates were sealed and reactions gently ‘vortexed’ at 900 rpm on a Heidolph Titramax 1000 for at least 30 minutes at room temperature. Plates are centrifuged again at 500×g for 10 seconds, and HTRF was measured using a Tecan Spark plate reader at 50 flashes per well. […] Potency estimates (EC50 and pEC50) are derived from the four-parameter nonlinear regression of the concentration-effect curve and an estimate of relative efficacy is determined by comparing the magnitude of the test compound HTRF signal window (min-max dose) with the signal window of the full agonist control, isoproterenol.

[2] = molecular target: T2, β2-adrenergic receptor (B2-AR) (Homo sapiens, UniProt P07550); test: cAMP Gs dynamic HTRF assay, cells expressing β2-adrenergic receptor; format: cell-based
T2 construct: expressed in transfected cells
Procedure: as §1, §2, §3, §4

[3] = CHO-K1 (HitHunter) cells, read-out: Average pEC50 [Receptor subtype: B1-AR, Cell type: CHO-K1 (HitHunter)] (converted)
[4] = Table 2, cAMP HTRF, read-out: β1 EC50
[5] = CHO-K1 (HitHunter) cells, read-out: Average pEC50 [Receptor subtype: B2-AR, Cell type: CHO-K1 (HitHunter)] (converted)
[6] = Table 2, cAMP HTRF, read-out: β2 EC50

T2 sequence (P07550 whole entry): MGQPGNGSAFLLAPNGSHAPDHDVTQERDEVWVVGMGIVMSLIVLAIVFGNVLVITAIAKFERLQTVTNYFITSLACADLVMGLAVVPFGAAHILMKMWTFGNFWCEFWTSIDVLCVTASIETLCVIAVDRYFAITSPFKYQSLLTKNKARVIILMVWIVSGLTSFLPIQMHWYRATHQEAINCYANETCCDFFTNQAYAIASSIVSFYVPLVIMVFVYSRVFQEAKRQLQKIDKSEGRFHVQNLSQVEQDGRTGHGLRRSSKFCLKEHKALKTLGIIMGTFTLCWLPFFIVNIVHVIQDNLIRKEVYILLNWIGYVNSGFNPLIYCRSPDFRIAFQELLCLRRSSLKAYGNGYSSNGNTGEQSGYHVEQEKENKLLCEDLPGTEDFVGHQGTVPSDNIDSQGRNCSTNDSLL
T1 sequence (P08588 whole entry): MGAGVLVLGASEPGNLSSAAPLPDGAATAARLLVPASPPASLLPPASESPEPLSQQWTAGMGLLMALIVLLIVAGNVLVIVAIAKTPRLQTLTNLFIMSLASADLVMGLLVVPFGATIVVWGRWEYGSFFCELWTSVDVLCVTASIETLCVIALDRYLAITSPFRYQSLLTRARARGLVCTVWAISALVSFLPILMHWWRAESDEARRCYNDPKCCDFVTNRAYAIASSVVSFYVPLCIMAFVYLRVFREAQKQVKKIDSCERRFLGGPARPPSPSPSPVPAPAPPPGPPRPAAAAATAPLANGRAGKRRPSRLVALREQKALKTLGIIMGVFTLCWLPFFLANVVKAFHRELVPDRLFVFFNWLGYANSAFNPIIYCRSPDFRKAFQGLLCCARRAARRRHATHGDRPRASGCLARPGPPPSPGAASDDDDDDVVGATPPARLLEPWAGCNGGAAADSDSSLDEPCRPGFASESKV

Structure (SMILES)	EC50 [1, 3]	EC50 [2, 5]	other results
CC(C)(C)NC[C@H](O)c1cnc(N)c(Cl)c1 [Compound 02-1]	100 to 1000 nM	10 to 100 nM	EC50 [1, 4]: 100 to 1000 nM; EC50 [2, 6]: 10 to 100 nM
CC(C)(C)NC[C@H](O)c1cnc(N)c(C(F)(F)F)c1 [Compound 02-2]	–	–	Average pEC50 [Receptor subtype: B1-AR; Cell type: CHO-K1 (HitHunter)] ([1]; CHO-K1 (HitHunter) cells): D (D < 6); EC50 [1, 4]: > 1000 nM; Average pEC50 [Receptor subtype: B2-AR; Cell type: CHO-K1 (HitHunter)] ([2]; CHO-K1 (HitHunter) cells): D (D < 6); EC50 [2, 6]: > 1000 nM
Cc1cc(C(O)CNC(C)(C)C)nnc1N (centres unmarked) [Compound 02-3]	> 1000 nM	100 to 1000 nM	–
Cc1nc([C@@H](O)CNC(C)(C)C)cnc1N [Compound 02-4]	100 to 1000 nM	> 1000 nM	–
CC(C)(C)NC[C@@H](O)c1cccc(N)n1 [Compound 02-6]	100 to 1000 nM	10 to 100 nM	–
CC(C)(C)NC[C@H](O)c1cccc(O)n1 [Compound 02-7]	> 1000 nM	> 1000 nM	–
CC(C)(C)NC[C@@H](O)c1cccc(O)n1 [Compound 02-8]	> 1000 nM	> 1000 nM	–
Cc1nc(N)c(Cl)cc1[C@H](O)CNC(C)(C)C [Compound 02-9]	100 to 1000 nM	10 to 100 nM	–
Cc1nc(N)c(C#N)cc1[C@@H](O)CNC(C)(C)C [Compound 02-10]	> 1000 nM	100 to 1000 nM	–
Cc1nc(N)c(C#N)cc1[C@H](O)CNC(C)(C)C [Compound 02-11]	> 1000 nM	> 1000 nM	–
Cc1cc(N)nc([C@H](O)CNC(C)(C)C)c1 [Compound 02-12]	> 1000 nM	> 1000 nM	–
Cc1cc(N)nc([C@@H](O)CNC(C)(C)C)c1 [Compound 02-13]	10 to 100 nM	10 to 100 nM	–
Cc1nc(N)c(Cl)cc1[C@@H](O)CNC(C)(C)C [Compound 02-14]	10 to 100 nM	< 10 nM	–
CC(C)(C)NC[C@H](O)c1cccc2[nH]c(=O)ccc12 [Compound 04-1, (R)-5-(2-(tert-butylamino)-1-hydroxyethyl)quinolin-2(1H)-one]	< 10 nM	< 10 nM	–
Cn1c(=O)ccc2c([C@@H](O)CNC(C)(C)C)cccc21 [Compound 04-2]	10 to 100 nM	< 10 nM	–
CC(C)(C)NC[C@H](O)c1cccc2oc(=O)ccc12 [Compound 04-3]	> 1000 nM	100 to 1000 nM	–
CC(C)(C)NC[C@H](O)c1ccc(F)c2[nH]c(=O)ccc12 [Compound 04-4]	< 10 nM	< 10 nM	–
CC(C)(C)NC[C@H](O)c1nccc2[nH]c(=O)ccc12 [Compound 04-5, (S)-5-(2-(tert-butylamino)-1-hydroxyethyl)-1,6-naphthyridin-2(1H)-one]	> 1000 nM	> 1000 nM	–
CC(C)(C)NC[C@H](O)c1ccc2c(n1)OCCO2 [Compound 04-7]	10 to 100 nM	10 to 100 nM	–
CC(C)(C)NC[C@H](O)c1ccc2c(n1)CCC2 [Compound 04-9]	100 to 1000 nM	10 to 100 nM	–
CC(C)(C)NC[C@H](O)c1ccc2c(n1)NCCO2 [Compound 04-10]	10 to 100 nM	10 to 100 nM	–

Structure (SMILES)	EC50 [1, 3]	EC50 [2, 5]	other results
CC(C)(C)NC[C@H](O)c1ccc2c(n1)NCC2 [Compound 04-11]	10 to 100 nM	10 to 100 nM	–
COc1ccc(C[C@@H](C)NC[C@H](O)c2ccc3c(n2)NCCO3)cc1 [Compound 04-12]	100 to 1000 nM	10 to 100 nM	–
CC(C)(C)NC[C@H](O)c1ccnc2[nH]c(=O)ccc12 [Compound 04-13]	10 to 100 nM	< 10 nM	–
CC(C)(C)NC[C@@H](O)c1cccc2oc(=O)ccc12 [Compound 04-14]	100 to 1000 nM	< 10 nM	–
Cn1c(=O)ccc2c([C@H](O)CNC(C)(C)C)cccc21 [Compound 04-15]	> 1000 nM	100 to 1000 nM	–
CC(C)(C)NC[C@@H](O)c1ccc(F)c2[nH]c(=O)ccc12 [Compound 04-16]	100 to 1000 nM	10 to 100 nM	–
Cc1cc2c([C@H](O)CNC(C)(C)C)cccc2[nH]c1=O [Compound 04-17]	100 to 1000 nM	> 1000 nM	–
Cc1cc2c([C@@H](O)CNC(C)(C)C)cccc2[nH]c1=O [Compound 04-18]	< 10 nM	10 to 100 nM	–
CC(C)(C)NC[C@H](O)c1cccc2c1OCC(=O)N2 [Compound 04-19]	< 10 nM	< 10 nM	–
CC(C)(C)NC[C@H](O)c1cccc2[nH]cnc12 [Compound 04-24]	10 to 100 nM	10 to 100 nM	–
CC(C)(C)NC[C@H](O)c1cccc2[nH]ncc12 [Compound 04-25]	< 10 nM	< 10 nM	–
CC(C)(C)NC[C@H](O)c1cccc2cn[nH]c12 [Compound 04-26]	10 to 100 nM	10 to 100 nM	–
Cn1ncc2c([C@@H](O)CNC(C)(C)C)cccc21 [Compound 04-27]	< 10 nM	10 to 100 nM	–
Cn1ncc2c([C@H](O)CNC(C)(C)C)cccc21 [Compound 04-28]	100 to 1000 nM	> 1000 nM	–
Cc1noc2cccc([C@@H](O)CNC(C)(C)C)c12 [Compound 04-29]	100 to 1000 nM	> 1000 nM	–
Cc1noc2cccc([C@H](O)CNC(C)(C)C)c12 [Compound 04-30]	> 1000 nM	–	–
CC(C)(C)NC[C@H](O)c1ccc2ccc(C(F)(F)F)cc2n1 [Compound 04-36]	< 10 nM	< 10 nM	–
CC(C)(C)NC[C@H](O)c1ccc2ncccc2c1 [Compound 04-38]	100 to 1000 nM	< 10 nM	–
CC(C)(C)NC[C@H](O)c1ccc2cccc(Cl)c2n1 [Compound 04-39]	< 10 nM	< 10 nM	–
CC(C)(C)NC[C@@H](O)c1ccc2cccc(Cl)c2n1 [Compound 04-40]	10 to 100 nM	10 to 100 nM	–
CC(C)(C)NC[C@H](O)c1ccc2cccc(F)c2n1 [Compound 04-41]	< 10 nM	< 10 nM	–

Structure (SMILES)	EC50 [1, 3]	EC50 [2, 5]	other results
CC(C)(C)NC[C@@H](O)c1ccc2cccc(F)c2n1 [Compound 04-42]	100 to 1000 nM	100 to 1000 nM	–
CC(C)(C)NC[C@H](O)c1ccc2[nH]ncc2c1 [Compound 04-48]	> 1000 nM	> 1000 nM	–
Cn1ncc2cc([C@@H](O)CNC(C)(C)C)ccc21 [Compound 04-49]	> 1000 nM	> 1000 nM	–
Cn1ncc2cc([C@H](O)CNC(C)(C)C)ccc21 [Compound 04-50]	100 to 1000 nM	10 to 100 nM	–
Cc1noc2ccc([C@@H](O)CNC(C)(C)C)cc12 [Compound 04-51]	> 1000 nM	> 1000 nM	–
Cc1noc2ccc([C@H](O)CNC(C)(C)C)cc12 [Compound 04-52]	100 to 1000 nM	10 to 100 nM	–
CC(C)(C)NC[C@H](O)c1ccc2[nH]c3ccccc3c2c1 [Compound 04-54]	> 1000 nM	100 to 1000 nM	–
COc1ccc(CC(C)(C)NC[C@H](O)c2cccc3[nH]c4ccccc4c23)cc1 [Compound 04-55]	10 to 100 nM	< 10 nM	–
CC(C)NC[C@H](O)c1cccc2[nH]c3ccccc3c12 [Compound 04-56]	< 10 nM	< 10 nM	–
CC(C)(C)NC[C@H](O)c1cccc2[nH]c3ccccc3c12 [Compound 04-57]	< 10 nM	< 10 nM	–
O[C@@H](CNC1(C(F)(F)F)CC1)c1cccc2cccnc12 [Compound 04-67]	> 1000 nM	> 1000 nM	–
O[C@H](CNC1(C(F)(F)F)CC1)c1cccc2cccnc12 [Compound 04-68]	> 1000 nM	> 1000 nM	–
CC(C)(C)NC[C@H](O)c1cccc2c(C(F)(F)F)ccnc12 [Compound 04-69]	10 to 100 nM	100 to 1000 nM	–
CC(C)(C)NC[C@@H](O)c1cccc2c(C(F)(F)F)ccnc12 [Compound 04-70]	–	< 10 nM	–
CC(C)(C)NC[C@@H](O)c1cccc2c(C#N)ccnc12 [Compound 04-77]	–	> 1000 nM	–
CC(C)(C)NC[C@H](O)c1cccc2c(C#N)ccnc12 [Compound 04-78]	100 to 1000 nM	–	–
CC(C)(C)NC[C@@H](O)c1c(F)ccc2cccnc12 [Compound 04-89]	> 1000 nM	–	–
CC(C)(C)NC[C@H](O)c1nc(C(F)(F)F)cc2ccccc12 [Compound 04-91]	> 1000 nM	–	–
CC(C)(C)NC[C@H](O)c1ccc2c(c1)CC(=O)N2 [Compound 04-121]	–	> 1000 nM	–
